Our source for the growth hormone level values is US3933784A, “Des-(ser^13)-srif and intermediates” (American Home Products Corporation, priority 1975, dated 1976).

The test system of the experiment is growth hormone. Put plainly: Growth hormone activity in nembutal-treated rats, growth hormone level by radioimmunoassay. Format: in vivo. The settings on record: rats 200-250 g, nembutal 50 mg/kg i.p., 5 minutes later compound 800 μg per rat s.c. in saline; blood taken 15 minutes after injection; control rats 159 ± 16 ng/ml. How it is done:
After hydrolysis of the peptide in methanesulfonic acid for 18 hours at 120°C in an evacuated sealed tube, the following values for the amino acid residues are obtained: Ala 1.00, Gly 1.00, Cys 1.59, Lys 1.88, Asp 0.99, Phe 3.05, Trp (present, but not quantitated), Thr 1.76. The growth hormone activity of the compound of Example 3 was determined by injecting rats weighing about 200-250 g first with nembutal intraperitoneally at a dose of 50 mg/kg then after 5 minutes injecting the rats subcutaneously with a solution of the compound of Example 3 in saline at a dose of 800 μg per rat. Blood samples are taken 15 minutes after injection with the compound of Example 3 and the growth hormone level determined by radioimmunoassay.

Positions of bridges follow the written chain, without caps; N, C: chain ends. No end group written: not given here.

As to “L-alanylglycyl-L-cysteinyl-L-lysyl-L-asparaginyl-L-phenylalanyl-L-phenylalanyl-L-tryptophyl-L-lysyl-L-threonyl-L-phenylalanyl-L-threonyl-L-cysteine-(3-13 cyclic) disulfide (AGCKNFFWKTFTC; disulfide 3-13; UniProt P61278 103-116, looked up, variant S13*) [Example 3, tridecapeptide analog of somatostatin in which the amino acid in the thirteen position has been omitted]”, the growth hormone level worked out at 49 ± 7 ng/mL.
